From ChEMBL document CHEMBL5154690, “Discovery of a tricyclic farnesoid X receptor agonist HEC96719, a clinical candidate for treatment of non-alcoholic steatohepatitis” (Eur J Med Chem, 2022)
Active and inactive are the calls of the source. The rule behind the calls is not given here.

Key:
[1] = Half-life in male Sprague-Dawley rat at 5 mg/kg, po measured by LC-MS/MS analysis; format: ADME, organism-based; conditions: in vivo
[2] = AUC (0 to t) in male Sprague-Dawley rat at 5 mg/kg, po measured by LC-MS/MS analysis; format: ADME, organism-based; design: dose 5 mg/kg, route po; conditions: in vivo
[3] = Cmax in male Sprague-Dawley rat at 5 mg/kg, po measured by LC-MS/MS analysis; format: ADME, organism-based; design: dose 5 mg/kg, route po; conditions: in vivo
[4] = Oral bioavailability in male Sprague-Dawley rat at 5 mg/kg measured by LC-MS/MS analysis; format: ADME, organism-based; conditions: in vivo
Mus musculus [5] = assay: Anti-NASH activity against high fat (HF) diet-induced nonalcoholic steatohepatitis in leptin-deficient ob/ob mouse model assessed as reduction in serum TG level at 3 mg/kg, po administered once daily from week 5 to 10; format: functional, organism-based
Mus musculus [6] = assay: Anti-NASH activity against high fat (HF) diet-induced nonalcoholic steatohepatitis in leptin-deficient ob/ob mouse model assessed as reduction in liver cholesterol level at 3 mg/kg, po administered once daily from week 5 to 10; format: functional, organism-based
[7] = Volume of distribution at steady state in male Sprague-Dawley rat at 1 mg/kg, iv measured by LC-MS/MS analysis; format: ADME, organism-based; conditions: in vivo, read-out: Vdss
[8] = Clearance in male Sprague-Dawley rat at 1 mg/kg, iv measured by LC-MS/MS analysis; format: ADME, organism-based; conditions: in vivo
[9] = AUC (0 to t) in male Sprague-Dawley rat at 1 mg/kg, iv measured by LC-MS/MS analysis; format: ADME, organism-based; design: dose 1 mg/kg, route iv; conditions: in vivo
Mus musculus [10] = assay: Anti-NASH activity against high fat (HF) diet-induced nonalcoholic steatohepatitis in leptin-deficient ob/ob mouse model assessed as reduction in serum ALT level at 3 mg/kg, po administered once daily from week 5 to 10; format: functional, organism-based
Bile acid receptor [11] = target: T1, Bile acid receptor (Homo sapiens, UniProt Q96RI1); assay: Agonist activity at FXR-LBD (unknown origin) assessed as induction of coactivator SRC-1 peptide recruitment measured by TR-FRET assay
T1 sequence (Q96RI1 whole entry): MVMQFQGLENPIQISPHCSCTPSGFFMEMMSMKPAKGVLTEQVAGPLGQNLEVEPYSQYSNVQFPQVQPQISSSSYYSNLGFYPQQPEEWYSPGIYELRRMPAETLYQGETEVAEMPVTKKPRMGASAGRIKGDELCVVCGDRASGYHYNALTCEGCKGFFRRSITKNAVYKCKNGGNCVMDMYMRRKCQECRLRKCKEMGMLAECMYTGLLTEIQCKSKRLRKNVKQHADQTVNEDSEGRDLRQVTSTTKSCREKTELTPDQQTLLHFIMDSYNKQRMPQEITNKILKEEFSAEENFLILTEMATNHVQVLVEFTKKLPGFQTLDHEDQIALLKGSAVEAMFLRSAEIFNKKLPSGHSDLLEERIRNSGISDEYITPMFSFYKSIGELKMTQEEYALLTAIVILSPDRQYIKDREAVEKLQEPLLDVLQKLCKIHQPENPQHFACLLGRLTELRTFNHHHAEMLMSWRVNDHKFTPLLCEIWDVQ

Bile acid receptor [12] = target: T1, Bile acid receptor; assay: Agonist activity at human FXR expressed in HEK293T cells by luciferase reporter assay; format: cell-based
[13] = Toxicity in alpha-naphthyl- isothiocyanate (ANIT)-induced cholestatic injury model of Sprague-Dawley rat assessed as effect on […] death; conditions: in vivo
[14] = Toxicity in alpha-naphthyl- isothiocyanate (ANIT)-induced cholestatic injury model of Sprague-Dawley rat assessed as effect on […] death at 10 mg/kg, po administered once daily for 4 days; format: organism-based; conditions: in vivo, 96 h, time 4 day

Compound | half-life [1] | AUC(0-t) [2] | Cmax [3] | bioavailability [4] | Vd [7] | clearance [8] | AUC(0-t) [9] | EC50 (Bile acid receptor [11]) | EC50 (Bile acid receptor [12]) | Activity (Mus musculus [5]) | Activity (Mus musculus [6]) | Activity (Mus musculus [10]) | other results
O=C(O)c1ccc2c(c1)Oc1ccc(OCc3c(-c4c(Cl)cccc4Cl)noc3C3CC3)nc1CC2 | 44.4 min | 1250 ng·h/mL | 3000 ng/mL | 37.1% | 0.4 L/kg | 14.3 mL/min/kg | 1180 ng·h/mL | 3.57 nM | 102 nM | Active | Active | Active | Activity [13]: Non-Toxic
O=C(O)c1ccc2c(c1)Oc1cnc(OCc3c(-c4c(Cl)cccc4Cl)noc3C3CC3)cc1CC2 | – | – | – | – | – | – | – | 11.7 nM | 161 nM | – | – | – | –
O=C(O)c1ccc2c(c1)Oc1ccc(OCc3c(-c4c(Cl)cccc4Cl)noc3C3CC3)cc1CC2 | – | – | – | – | – | – | – | 833 nM | 345 nM | – | – | – | Activity [14]: Toxic
CC1=Cc2ccc(C(=O)O)cc2Oc2ccc(OCc3c(-c4c(Cl)cccc4Cl)noc3C3CC3)nc21 | 72 min | 1180 ng·h/mL | 2210 ng/mL | 46.2% | 0.35 L/kg | 17.5 mL/min/kg | 963 ng·h/mL | – | – | Active | Active | Active | –
CC1=Cc2nc(OCc3c(-c4c(Cl)cccc4Cl)noc3C3CC3)ccc2Oc2cc(C(=O)O)ccc21 | – | – | – | – | – | – | – | 6.03 nM | 87.3 nM | – | – | – | –
O=C(O)c1ccc2c(c1)Oc1ccc(OCc3c(-c4c(Cl)cccc4Cl)noc3C3CC3)nc1C=C2F | – | – | – | – | – | – | – | 17.3 nM | 219 nM | – | – | – | –

Continued, in another order:

half-life [1] | AUC(0-t) [2] | Cmax [3] | bioavailability [4] | Vd [7] | clearance [8] | AUC(0-t) [9] | EC50 (Bile acid receptor [11]) | EC50 (Bile acid receptor [12]) | Compound | Activity (Mus musculus [5]) | Activity (Mus musculus [6]) | Activity (Mus musculus [10]) | other results
55.8 min | 2230 ng·h/mL | 1280 ng/mL | 44.9% | 0.54 L/kg | 30.3 mL/min/kg | 554 ng·h/mL | – | – | CC1Cc2ccc(C(=O)O)cc2Oc2ccc(OCc3c(-c4c(Cl)cccc4Cl)noc3C3CC3)nc21 (stereo unspecified) | Active | Active | Active | –
– | – | – | – | – | – | – | 37 nM | – | O=C(O)c1ccc2c(c1)Oc1ncc(OCc3c(-c4c(Cl)cccc4Cl)noc3C3CC3)cc1CC2 | – | – | – | –
– | – | – | – | – | – | – | – | 372 nM | O=C(O)c1cc(F)c2c(c1)Oc1ccc(OCc3c(-c4c(Cl)cccc4Cl)noc3C3CC3)nc1CC2 | – | – | – | –
– | – | – | – | – | – | – | 14.3 nM | 114 nM | O=C(O)c1ccc2c(c1)Oc1ccc(OCc3c(-c4c(Cl)cccc4Cl)noc3C3CC3)nc1CO2 | – | – | – | –
